The values below are quoted from earlier work in paper PMC11014758 (ACS infectious diseases, 2024).

Data set [1] addresses T1, LasR (Pseudomonas aeruginosa, UniProt P25084). To be noted: same strain, analogous assay conditions; ref Moore et al. 2015 [15].
In data set [2] the target is T1, LasR. To be noted: same strain, analogous assay conditions; ref Moore et al. 2015 [15]. This is another data set of the same source.

pIC50: −log10 of the molar value.

T1 sequence (P25084 whole entry): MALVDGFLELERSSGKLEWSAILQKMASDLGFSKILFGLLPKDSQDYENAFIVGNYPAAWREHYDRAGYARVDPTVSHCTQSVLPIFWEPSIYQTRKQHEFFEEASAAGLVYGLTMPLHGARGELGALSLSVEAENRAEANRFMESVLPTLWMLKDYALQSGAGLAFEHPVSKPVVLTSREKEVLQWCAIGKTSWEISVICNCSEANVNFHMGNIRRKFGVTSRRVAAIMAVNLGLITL

Turning to `CCCCCCCCCC(=O)CC(=O)N[C@H]1CCOC1=O` [OdDHL, N-(3-oxo)-dodecanoyl L-homoserine lactone], the “Maximum Activation” value on LasR [1] was 100%.
As to `CCCCCCCCCNC(=O)CC(=O)c1ccccc1` [V-06–018], the pIC50 (usually −log10 of the IC50, conventionally taken in molar units) on LasR [2] is 5.28.
With chlorolactone [CL], on LasR [2], the pIC50 was 4.68 and the “Maximum Inhibition” value is reported as 55%.
